This is an account of results in patent US20070149552A1, “Lyophilized compositions of a triazolopyrimidine compound” (Wyeth, priority 2005, published 2007).

Series [1] has as its system xenograft models of human non-small cell lung cancer (NSCLC), colon cancer, breast cancer, melanoma, and glioblastoma. To be noted: including models resistant to taxanes or other microtubule-active compounds; cited from earlier work.
The next series can be described thus: Solubility of the salt. In kind it is physicochemical.

With `CNCCCOc1cc(F)c(-c2c(Cl)nc3ncnn3c2N[C@@H](C)C(F)(F)F)c(F)c1` [Compound Ia, 5-chloro-6-{2,6-difluoro-4-[3-(methylamino)propoxy]phenyl}-N-[(1S)-2,2,2-trifluoro-1-methylethyl][1,2,4]triazolo[1,5-a]pyrimidin-7-amine], in series [1], the antitumor activity entry is recorded as “broad antitumor activity”.

For `CNCCCOc1cc(F)c(-c2c(Cl)nc3ncnn3c2N[C@@H](C)C(F)(F)F)c(F)c1.O=C(O)CCC(=O)O` [succinate dihydrate salt of Compound Ia], the solubility entry in “Solubility of the salt” is on record as “reasonable solubility”.
